{
  "source": "paper PMC4972573",
  "about": "(Nature structural & molecular biology, 2013)",
  "target": "GluK2 Y521C L783C (Rattus norvegicus, UniProt P42260, Y521C/L783C)",
  "sequence (P42260 32-908 Y521C/L783C)": "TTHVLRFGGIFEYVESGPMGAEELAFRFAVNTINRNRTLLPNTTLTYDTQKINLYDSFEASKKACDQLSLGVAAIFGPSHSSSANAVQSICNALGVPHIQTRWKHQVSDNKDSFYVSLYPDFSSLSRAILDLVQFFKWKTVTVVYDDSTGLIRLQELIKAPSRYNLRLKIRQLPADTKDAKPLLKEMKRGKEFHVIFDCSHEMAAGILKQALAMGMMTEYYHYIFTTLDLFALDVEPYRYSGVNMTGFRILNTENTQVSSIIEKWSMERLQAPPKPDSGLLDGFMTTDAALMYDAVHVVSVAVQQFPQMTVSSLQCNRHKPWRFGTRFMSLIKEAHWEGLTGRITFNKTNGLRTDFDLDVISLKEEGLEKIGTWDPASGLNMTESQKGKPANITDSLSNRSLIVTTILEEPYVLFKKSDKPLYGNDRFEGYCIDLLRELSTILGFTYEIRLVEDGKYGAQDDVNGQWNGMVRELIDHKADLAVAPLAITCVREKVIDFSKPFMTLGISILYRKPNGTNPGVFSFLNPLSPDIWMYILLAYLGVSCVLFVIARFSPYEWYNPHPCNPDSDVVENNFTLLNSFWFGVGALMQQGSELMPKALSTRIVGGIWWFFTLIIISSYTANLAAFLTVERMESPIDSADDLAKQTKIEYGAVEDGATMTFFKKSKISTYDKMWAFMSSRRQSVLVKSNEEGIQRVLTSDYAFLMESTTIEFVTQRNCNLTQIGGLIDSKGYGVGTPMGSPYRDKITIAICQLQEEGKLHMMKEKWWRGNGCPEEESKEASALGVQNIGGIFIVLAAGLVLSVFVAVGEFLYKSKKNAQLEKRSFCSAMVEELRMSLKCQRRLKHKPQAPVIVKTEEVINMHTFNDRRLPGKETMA",
  "assay": "outside-out patch single-channel and macroscopic currents",
  "type": "cell-based",
  "data": [
    {"smiles": "N[C@@H](CCC(=O)O)C(=O)O", "note": "[L-Glu]", "values": [
      {"measurement": "outside-out patch single-channel and macroscopic currents", "result": "Unitary current events elicited by L-Glu acting on Y521C L783C channels"}
    ]}
  ]
}
